The text below walks through data of the RepoRT retention time repository (doi:10.1016/j.jchromb.2020.122105).

What all share (settings): stereoisomer not certain
The nature of series [1]: HILIC, Merck SeQuant ZIC-HILIC, 150 × 2.1 mm, 5 µm, 0.75 mL/min, estimated dead time 0.44 min; A: water + 10 mM ammonium formate, pH 6; B: 5% water + 95% acetonitrile + 10 mM ammonium formate, pH 6; gradient (min/%B) 0/95 5/95 20/57 25/57 30/95 40/95.
A short description of series [2]: HILIC, Waters XBridge BEH Amide, 100 × 2.1 mm, 2.5 µm, 0.5 mL/min, estimated dead time 0.44 min; A: water + 0.1% acetic acid + 10 mM ammonium acetate, pH 4; B: 5% water + 95% acetonitrile + 0.1% acetic acid + 10 mM ammonium acetate, pH 4; gradient (min/%B) 0/95 5/95 20/57 25/57 30/95 40/95.
Series [3] is described as follows: HILIC, Merck SeQuant ZIC-HILIC, 150 × 2.1 mm, 5 µm, 0.75 mL/min, estimated dead time 0.44 min; A: water + 0.1% acetic acid + 10 mM ammonium acetate, pH 4; B: 5% water + 95% acetonitrile + 0.1% acetic acid + 10 mM ammonium acetate, pH 4; gradient (min/%B) 0/95 5/95 20/57 25/57 30/95 40/95.
Series [4] in a line: HILIC, Thermo Scientific Accucore HILIC, 100 × 2.1 mm, 2.6 µm, 0.5 mL/min, estimated dead time 0.44 min; A: water + 0.1% formic acid + 10 mM ammonium formate, pH 3; B: 5% water + 95% acetonitrile + 0.1% formic acid + 10 mM ammonium formate, pH 3; gradient (min/%B) 0/95 5/95 20/57 25/57 30/95 40/95.
Series [5] can be described thus: RP, Waters ACQUITY UPLC BEH C18, 100 × 2.1 mm, 1.7 µm, 0.2 mL/min, estimated dead time 1.1 min; A: water + 0.1% formic acid, pH 3; B: methanol + 0.1% formic acid, pH 3; gradient (min/%B) 0/5 5/5 25/100 30/100 30.1/5 35/5.
Series [6] in a line: RP, Waters CORTECS T3, 100 × 2.1 mm, 2.7 µm, 0.25 mL/min, estimated dead time 0.88 min; A: water + 0.1% formic acid, pH 3; B: methanol + 0.1% formic acid, pH 3; gradient (min/%B) 0/5 5/5 25/95 25.1/100 35/100 35.1/5 45/5.
A short description of series [7]: RP, Waters ACQUITY UPLC BEH C18, 100 × 2.1 mm, 1.7 µm, 0.2 mL/min, estimated dead time 1.1 min; A: water + 0.025% formic acid + 20 mM ammonium acetate + 0.055% ammonium hydroxide, pH 7; B: methanol; gradient (min/%B) 0/5 5/5 25/100 30/100 30.1/5 35/5.
Series [8] in a line: RP, Waters CORTECS T3, 100 × 2.1 mm, 2.7 µm, 0.2 mL/min, estimated dead time 1.1 min; A: water + 0.1% formic acid, pH 3; B: methanol + 0.1% formic acid, pH 3; gradient (min/%B) 0/5 5/5 25/95 25.1/100 35/100 35.1/5 45/5.
The nature of series [9]: RP, Thermo Scientific Hypercarb, 150 × 2.1 mm, 5 µm, 0.1 mL/min, estimated dead time 3.3 min; A: water + 0.1% formic acid, pH 3; B: methanol + 0.1% formic acid, pH 3; gradient (min/%B) 0/5 5/5 20/100 35/100 35.1/5 45/5.
The nature of series [10]: RP, Waters CORTECS T3, 100 × 2.1 mm, 2.7 µm, 0.15 mL/min, estimated dead time 1.5 min; A: water + 0.1% formic acid, pH 3; B: methanol + 0.1% formic acid, pH 3; gradient (min/%B) 0/0 1/0 6/5 30/100 35/100 35.1/0 40/0.
Series [11] is described as follows: RP, Waters CORTECS T3, 100 × 2.1 mm, 2.7 µm, 0.2 mL/min, estimated dead time 1.1 min; A: water + 0.1% formic acid, pH 3; B: methanol + 0.1% formic acid, pH 3; gradient (min/%B) 0/0 1/0 6/5 30/100 35/100 35.1/0 40/0.
The nature of series [12]: RP, Waters ACQUITY UPLC BEH C18, 100 × 2.1 mm, 1.7 µm, 0.2 mL/min, estimated dead time 1.1 min; A: water + 0.025% formic acid + 20 mM ammonium acetate + 0.055% ammonium hydroxide, pH 7; B: methanol; gradient (min/%B) 0/5 5/5 25/100 30/100 30.1/5 35/5. The source holds these as a separate data set.
A short description of series [13]: RP, Waters CORTECS T3, 100 × 2.1 mm, 2.7 µm, 0.25 mL/min, estimated dead time 0.88 min; A: water + 0.1% formic acid, pH 3; B: methanol + 0.1% formic acid, pH 3; gradient (min/%B) 0/0 1/0 6/5 30/100 35/100 35.1/0 40/0.
The nature of series [14]: RP, Waters CORTECS T3, 100 × 2.1 mm, 2.7 µm, 0.3 mL/min, estimated dead time 0.73 min; A: water + 0.1% formic acid, pH 3; B: methanol + 0.1% formic acid, pH 3; gradient (min/%B) 0/0 5/0 25/100 30/100 30.1/0 35/0.
A short description of series [15]: RP, Waters ACQUITY UPLC BEH C18, 100 × 2.1 mm, 1.7 µm, 0.1 mL/min, estimated dead time 2.2 min; A: water + 0.1% formic acid, pH 3; B: methanol + 0.1% formic acid, pH 3; gradient (min/%B) 0/5 5/5 25/100 30/100 30.1/5 35/5.
A short description of series [16]: RP, Waters CORTECS T3, 100 × 2.1 mm, 2.7 µm, 0.2 mL/min, estimated dead time 1.1 min; A: water + 0.1% formic acid, pH 3; B: methanol + 0.1% formic acid, pH 3; gradient (min/%B) 0/0 1/0 6/5 30/100 35/100 35.1/0 40/0. The source holds these as a separate data set.
A short description of series [17]: RP, Waters CORTECS T3, 100 × 2.1 mm, 2.7 µm, 0.3 mL/min, estimated dead time 0.73 min; A: water + 0.1% formic acid, pH 3; B: methanol + 0.1% formic acid, pH 3; gradient (min/%B) 0/0 5/0 25/100 30/100 30.1/0 35/0. This is another data set of the same source.
A short description of series [18]: RP, Waters ACQUITY UPLC BEH C18, 100 × 2.1 mm, 1.7 µm, 0.1 mL/min, estimated dead time 2.2 min; A: water + 0.1% formic acid, pH 3; B: methanol + 0.1% formic acid, pH 3; gradient (min/%B) 0/5 5/5 25/95 25.1/100 35/100 35.1/5 45/5.
Series [19] is described as follows: RP, Waters CORTECS T3, 100 × 2.1 mm, 2.7 µm, 0.3 mL/min, estimated dead time 0.73 min; A: water + 0.1% formic acid, pH 3; B: methanol + 0.1% formic acid, pH 3; gradient (min/%B) 0/0 1/0 6/5 30/100 35/100 35.1/0 40/0.
The nature of series [20]: RP, Waters ACQUITY UPLC BEH C18, 100 × 2.1 mm, 1.7 µm, 0.1 mL/min, estimated dead time 2.2 min; A: water + 0.1% formic acid, pH 3; B: methanol + 0.1% formic acid, pH 3; gradient (min/%B) 0/5 5/5 25/95 25.1/100 35/100 35.1/5 45/5. This is another data set of the same source.
Series [21] in a line: RP, Waters CORTECS T3, 100 × 2.1 mm, 2.7 µm, 0.3 mL/min, estimated dead time 0.73 min; A: water + 0.1% formic acid, pH 3; B: methanol + 0.1% formic acid, pH 3; gradient (min/%B) 0/5 5/5 25/100 30/100 30.1/5 35/5.
Series [22] is described as follows: RP, Waters CORTECS T3, 100 × 2.1 mm, 2.7 µm, 0.1 mL/min, estimated dead time 2.2 min; A: water + 0.1% formic acid, pH 3; B: methanol + 0.1% formic acid, pH 3; gradient (min/%B) 0/0 1/0 6/5 30/100 35/100 35.1/0 40/0.
Series [23] can be described thus: RP, Waters CORTECS T3, 100 × 2.1 mm, 2.7 µm, 0.15 mL/min, estimated dead time 1.5 min; A: water + 0.1% formic acid, pH 3; B: methanol + 0.1% formic acid, pH 3; gradient (min/%B) 0/5 5/5 25/95 25.1/100 35/100 35.1/5 45/5.
Series [24] can be described thus: RP, Waters CORTECS T3, 100 × 2.1 mm, 2.7 µm, 0.3 mL/min, estimated dead time 0.73 min; A: water + 0.1% formic acid, pH 3; B: methanol + 0.1% formic acid, pH 3; gradient (min/%B) 0/5 5/5 25/95 25.1/100 35/100 35.1/5 45/5.
The nature of series [25]: RP, Waters CORTECS T3, 100 × 2.1 mm, 2.7 µm, 0.1 mL/min, estimated dead time 2.2 min; A: water + 0.1% formic acid, pH 3; B: methanol + 0.1% formic acid, pH 3; gradient (min/%B) 0/5 5/5 25/95 25.1/100 35/100 35.1/5 45/5.
Series [26] is described as follows: RP, Waters ACQUITY UPLC BEH C18, 100 × 2.1 mm, 1.7 µm, 0.1 mL/min, estimated dead time 2.2 min; A: water + 0.045% formic acid + 0.11% ammonium hydroxide, pH 7; B: methanol; gradient (min/%B) 0/5 5/5 25/95 25.1/100 35/100 35.1/5 45/5.
The nature of series [27]: RP, Waters CORTECS T3, 100 × 2.1 mm, 2.7 µm, 0.3 mL/min, estimated dead time 0.73 min; A: water + 0.1% formic acid, pH 3; B: methanol + 0.1% formic acid, pH 3; gradient (min/%B) 0/0 1/0 6/5 30/100 35/100 35.1/0 40/0. This is another data set of the same source.
Series [28] can be described thus: RP, Waters ACQUITY UPLC BEH C18, 100 × 2.1 mm, 1.7 µm, 0.1 mL/min, estimated dead time 2.2 min; A: water + 0.1% formic acid, pH 3; B: methanol + 0.1% formic acid, pH 3; gradient (min/%B) 0/5 5/5 25/95 25.1/100 35/100 35.1/5 45/5. The source holds these as a separate data set.

Each structure is given as a SMILES string.

For `CC(O)(CC(=O)O)CC(=O)O` [3-HYDROXY-3-METHYLGLUTARATE], the LC retention time is 12.8 min in series [1], 12.1 min in series [2], 12.2 min in [3] and 11.2 min in series [4].

`NC(C=O)C(O)C(O)C(O)COS(=O)(=O)O` [D-GLUCOSAMINE 6-SULFATE]: the LC retention time is 15 min in series [1], 13.1 min in [2], 15.2 min in [3] and 11.8 min in series [4].

Consider `CC(CCC(=O)NCC(=O)O)C1CCC2C3C(O)CC4CC(O)CCC4(C)C3CC(O)C12C` (stereo not drawn) [GLYCOCHOLATE], for which the LC retention time in series [5] was 21.8 min; in [6] it was 21.7 min; in series [7], 19.5 min; in series [4] it was 9.61 min.

On to `N[C@@H](Cc1cnc[nH]1)C(=O)O` [L-HISTIDINE], for which the LC retention time in series [8] is 2.39 min; in series [9], 4.72 min; in series [4], 14.9 min.

Turning to `CCCCCCCCCCCC(=O)O` [LAURIC ACID], in series [4], the LC retention time is 9.23 min.

With `CC(=O)NC(CCCCN)C(=O)O` [N-ALPHA-ACETYL-L-LYSINE], the LC retention time in [1] is 13.6 min; in series [10], 1.78 min; in series [5] it was 1.34 min; in series [11] it was 1.35 min; in [12], 1.37 min; in series [13] it was 1.09 min. Besides, the LC retention time in series [14] is 0.89 min; in series [2], 13.2 min; in series [15], 2.69 min; in [16], 1.34 min; in series [8], 2.64 min; in series [9] it was 4.9 min. Also, the LC retention time in [3] was 13.4 min; in [17], 0.89 min; in series [4] it was 13 min.

Consider `CCCCCCSCC(NC(=O)CCC(N)C(=O)O)C(=O)NCC(=O)O` (stereo not drawn) [S-HEXYL-GLUTATHIONE], for which the LC retention time in series [18] is 21.2 min; in [10], 20.8 min; in series [5], 17.5 min; in [11], 19.5 min; in [19] it was 18.1 min; in series [13] it was 18.7 min. In addition, the LC retention time in [6] is 16.6 min; in series [14], 16.2 min; in series [20], 21.1 min; in series [15] it was 20.6 min; in series [16], 19.5 min; in series [21] it was 15.6 min. Also, the LC retention time was 22.9 min in [8]; 17.4 min in series [22]; 18.5 min in [23]; 16 min in [24]; 20.5 min in series [25]; 19.8 min in series [26]. The LC retention time in series [27] is 18.1 min; in series [17] it was 16.2 min; in [7] it was 12.8 min; in [28], 21.2 min.
